In the assay the target is T1, GST-ALK5 (Homo sapiens, UniProt P36897).
T1 sequence (P36897 34-503): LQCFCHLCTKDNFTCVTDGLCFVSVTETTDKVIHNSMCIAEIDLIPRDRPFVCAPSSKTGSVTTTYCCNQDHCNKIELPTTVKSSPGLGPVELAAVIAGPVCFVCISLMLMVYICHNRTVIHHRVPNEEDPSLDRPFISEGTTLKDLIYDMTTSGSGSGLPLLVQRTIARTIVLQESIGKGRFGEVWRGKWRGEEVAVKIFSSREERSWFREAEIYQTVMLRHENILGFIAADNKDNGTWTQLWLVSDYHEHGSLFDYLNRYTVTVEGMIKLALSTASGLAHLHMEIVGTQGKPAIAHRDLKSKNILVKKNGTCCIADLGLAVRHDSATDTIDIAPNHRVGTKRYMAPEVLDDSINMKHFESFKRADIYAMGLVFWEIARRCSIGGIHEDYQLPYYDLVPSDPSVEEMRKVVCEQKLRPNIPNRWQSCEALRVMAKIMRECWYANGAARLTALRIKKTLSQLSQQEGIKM
As to the kind of experiment: In-vitro (enzyme) kinase assay, 384-well flashplate, inhibition of TGF-beta receptor I kinase. The note with it: 31.2 nM GST-ALK5, 439 nM GST-SMAD2, 3 mM ATP (33P-ATP), 30° C., 45 min. Format: biochemical. The protocol:
In-Vitro (Enzyme) Assay for the Determination of the Efficacy of Inhibitors of the Inhibition of TGF-Beta-Promoted Effects Vermittelten Wirkungen
The kinase assay is carried out as 384-well flashplate assay. 31.2 nM of GST-ALK5, 439 nM of GST-SMAD2 and 3 mM of ATP (with 0.3 μCi of ^33P-ATP/well) are incubated in a total volume of 35 μl (20 mM of HEPES, 10 mM of MgCl, 5 mM of MnCl, 1 mM of DTT, 0.1% of BSA, pH 7.4) without or with test substance (5-10 concentrations) at 30° C. for 45 min. The reaction is stopped using 25 μl of 200 mM EDTA solution, filtered with suction at room temperature after 30 min, and the wells are washed with 3 times 100 μl of 0.9% NaCl solution. Radioactivity is measured in the TopCount. The IC50 values are calculated using RS1.
Consider `Cc1ccc(-c2nc(C3CC3)nc3sc(C(N)=O)c(N)c23)o1` [Compound A1, 5-amino-2-cyclopropyl-4-(5-methylfuran-2-yl)-thieno[2,3-d]pyrimidine-6-carboxamide], for which 48 nM corresponded to half-maximal inhibition (IC50).

Molecule `CSc1nc(-c2ccco2)c2c(N)c(C(N)=O)sc2n1` [Compound A8, 5-amino-4-furan-2-yl-2-methylsulfanylthieno[2,3-d]pyrimidine-6-carboxamide] showed an IC50 of 97 nM.

`CSc1nc(-c2ccc(C)o2)c2c(N)c(C(N)=O)sc2n1` [Compound A10, 5-Amino-4-(5-methylfuran-2-yl)-2-methyl-sulfanylthieno[2,3-d]pyrimidine-6-carboxamide] had an IC50 of 46 nM. This IC50 lies about 2.1-fold lower than the previous one.

`CC(C)(C)c1nc(-c2ccco2)c2c(N)c(C(N)=O)sc2n1` [Compound A25, 5-amino-2-tert-butyl-4-furan-2-ylthieno[2,3-d]pyrimidine-6-carboxamide] displayed an IC50 of 87 nM.

`Cc1ccc(-c2nc(C(C)(C)C)nc3sc(C(N)=O)c(N)c23)o1` [Compound A26, 5-amino-2-tert-butyl-4-(5-methylfuran-2-yl)thieno[2,3-d]pyrimidine-6-carboxamide]: the IC50 was 77 nM. This IC50 and that of the molecule before are within 1.5-fold of each other.

Consider `CNc1nc(-c2ccc(C)o2)c2c(N)c(C(N)=O)sc2n1` [Compound A34, 5-amino-2-methylamino-4-(5-methylfuran-2-yl)thieno[2,3-d]pyrimidine-6-carboxamide], for which the IC50 was 36 nM. This IC50 lies about 2.1-fold lower than the previous one.

For `C=CCNc1nc(-c2ccc(C)o2)c2c(N)c(C(N)=O)sc2n1` [Compound A42, 2-allylamino-5-amino-4-(5-methylfuran-2-yl)-thieno[2,3-d]pyrimidine-6-carboxamide], the IC50 stood at 67 nM. This IC50 lies about 1.9-fold higher than the previous one.

For the molecule `C=CCNc1nc(-c2cccc(C)n2)c2c(N)c(C(N)=O)sc2n1` [Compound A50, 2-allylamino-5-amino-4-(6-methylpyridin-2-yl)thieno[2,3-d]pyrimidine-6-carboxamide], the midpoint of inhibition, the IC50, lay at 22 nM.

`C#CCNc1nc(-c2cccc(C)n2)c2c(N)c(C(N)=O)sc2n1` [Compound A52, 5-amino-4-(6-methylpyridin-2-yl)-2-prop-2-ynylaminothieno[2,3-d]pyrimidine-6-carboxamide] displayed an IC50 of 54 nM.

`Cc1cccc(-c2nc(NCCC#N)nc3sc(C(N)=O)c(N)c23)n1` [Compound A56, 5-amino-2-(2-cyanoethylamino)-4-(6-methylpyridin-2-yl)thieno[2,3-d]-pyrimidine-6-carboxamide]: the IC50 was found to be 79 nM.

These data come from US20110028472A1, “THIENOPYRIMIDINES” (MERCK PATENT CESELLSCHAFT MIT BESCHRANKTER HAFTUNG, priority 2008, published 2011).
